Blank lines part the entries; values can stand above or below the compound they belong to.
What was measured:
[1] = rats fed ad libitum; cited from earlier work
pancreatic lipase = conditions: cited from earlier work
[2] = in vivo animal feeding study for caloric availability; parameters: species or system Sprague-Dawley rats; conditions: rats, diet of 50% fort and 21% test compound, 14 days; from weight gain and corn oil base line data
From the text: This example illustrates how the novel fat mimetics of this invention are screened for caloric availability by a carefully controlled in vivo animal feeding study.
An experimental relationship between total calories ingested and animal body weight gain is established by monitoring the body weight gain associated with consumption of a nutritionally balanced diet containing varying concentrations of a reference substance such as corn oil which has a known caloric availabilty. Correlations between total calories ingested and body weight gain are excellent (r=0.99).
Caloric availability of an unknown substance is evaluated by substituting a specific weight of the unknown substance for the reference substance and observing the body weight gain. The gain in body weight is equated to a total number of calories using the correlation previously established for the reference data. The estimated number of calories ingested are divided by the weight of unknown substance to give the apparent calories per gram for the unknown substance. Generally speaking, in these bioavailability studies, the degree of perianal pelt soiling correlates with reduced bioavailability.
The test animals are six-week-old male Sprague-Dawley rats obtained from the Portage, Michigan facility of the Charles River Laboratories, Inc. After acclimation for 15 days, the test duration is I4 days. […]

[3] = rat, in vivo; cited from earlier work

Compound: CCCCCCCC(=O)OCC(COC(=O)CCCCCCC)(COC(=O)CCCCCCC)COC(=O)CCCCCCC [pentaerythritol tetracaprylate]
food consumption versus control animals on a normal diet [1]: consumed more than control animals
hydrolysis by the enzyme pancreatic lipase (pancreatic lipase): not attacked, hydrolyzed

caloric availability upon being metabolized [2]: about 3.3 kcal/gram
Compound: CCCCCCCC/C=C\CCCCCCCC(=O)OCC(C)(COC(=O)CCCCCCC/C=C\CCCCCCCC)COC(=O)CCCCCCC/C=C\CCCCCCCC [Example 1, 1,1,1-Tris hydroxymethylethane trioleate]

Compound: corn oil
caloric availability of reference [3]: 9.0 calories/gram
